Laboratory results taken from patent US9815826B2, “Crystal of azole benzene derivative” (TEIJIN PHARMA LIMITED, priority 2014, dated 2017).

Legend:
[1] = biological target: T1, oxidase-type xanthine oxidoreductase (from buttermilk) (Bos taurus, UniProt P80457); experiment: Measurement of xanthine oxidase inhibitory activity; type: biochemical; conditions: xanthine substrate, absorbance 290 nm
T1 construct: purchased Calbiochem Novabiochem Corp; host or cells: natural source: buttermilk
Description: After dissolving 2-[4-(2,2-dimethylpropoxy)-3-(1H-1,2,3,4-tetrazol-1-yl)phenyl]-4-methyl-1,3-thiazole-5-carboxylic acid in DMSO (produced by Sigma Corporation) so that the concentration is 20 mM, the solution was used by adjusting the concentration to a desired value for the purpose during use.
The evaluation of the xanthine oxidase inhibitory activity of 2-[4-(2,2-dimethylpropoxy)-3-(1H-1,2,3,4-tetrazol-1-yl)phenyl]-4-methyl-1,3-thiazole-5-carboxylic acid was conducted by the method described in the refference (Method Enzymatic Analysis, 1, 521-522, 1974) with partial modification. This evaluation was carried out by measuring oxidase-type xanthine oxidoreductase acrivity. […] After mixing the plate, absorbance at 290 nm was measured by a microplate reader SPECTRA MAX Plus 384 (manufactured by Molecular Devices, LLC). […] Immediately after mixing, the change of absorbance at 290 nm was measured for 5 minutes. The enzyme activity of DMSO solution without test compound was used as 100% control, and the inhibitory rate of the test compound was calculated. Fifty percent inhibitory concentration of the test compound on the oxidase-type xanthine oxidoreductase activity was calculated by fitting to the dose-response curve.

[2] = system: level of uric acid in the blood; experiment: Hypouricemic effect (normal rats), 2 hours after administration; type: in vivo, Sprague-Dawley male rats; conditions: oral
Description: The hypouricemic effect was confirmed for 2-[4-(2,2-dimethylpropoxy)-3-(1H-1,2,3,4-tetrazol-1-yl)phenyl]-4-methyl-1,3-thiazole-5-carboxylic acid. A test compound suspended in a 0.5% methylcellulose solution was forcibly administered to 8 to 9 week-old Sprague-Dawley male rats (Japan Charles River Co.) by oral gavage administration using a feeding needle. After the blood was collected from the tail vein at 2 hours after administration, the plasma was separated. The level of uric acid in the blood sample was measured by uricase method using an absorption spectrometer as well as a uric acid determination kit (L type Wako UA F: Wako Pure Chemical Industries, Ltd.). The percentage of hypouricemic effect was determined by the following expression: Percentage of hypouricemic effect (%)=(Level of uric acid of the control animal−Level of uric acid of the test compound-administered animal)×100/Level of uric acid of the control animal.

[3] = system: level of uric acid in the blood; experiment: Prolonged hypouricemic effect (normal rats), 24 hours after administration; type: in vivo, Sprague-Dawley male rats; conditions: oral
Description: 2-[4-(2,2-dimethylpropoxy)-3-(1H-1,2,3,4-tetrazol-1-yl)phenyl]-4-methyl-1,3-thiazole-5-carboxylic acid was administered to Sprague-Dawley male rats in the same manner as in Reference Example 4. After the blood was collected from the tail vein 24 hours after administration, the plasma was separated. The level of uric acid in the blood was measured by an uricase method using an absorption spectrometer and a uric acid determination kit (L type Wako UA F: Wako Pure Chemical Industries, Ltd.). The percentage of hypouricemic effect was determined by the following expression: Percentage of hypouricemic effect (%)=(Level of uric acid of the control animal−Level of uric acid of the test compound-administered animal)×100/Level of uric acid of the control animal.

[4] = system: level of uric acid in the plasma; experiment: Hypouricemic effect (oxonic acid-induced hyperuricemic beagle dogs); type: in vivo, beagle dog; conditions: oral, 10 mg/kg, 8 hours after administration
Description: The hypouricemic effect of 2-[4-(2,2-dimethylpropoxy)-3-(1H-1,2,3,4-tetrazol-1-yl)phenyl]-4-methyl-1,3-thiazole-5-carboxylic acid in oxonic acid-induced hyperuricmic beagle dog was confirmed. A test compound suspended in a 0.5% methylcellulose solution was administered to beagle dog (Kitayama labes) by oral gavage administration. Potassium oxonate (50 mg/kg) was subcutaneously administrated before and 4 hours after compound administration. After the blood was collected from the cephalic vein at 8 hours after administration, the plasma was separated. The level of uric acid in the plasma sample was measured by LC-MS/MS method and the percentage of hypouricemic effect was determined by the following expression: Percentage of hypouricemic effect (%)=(Level of uric acid of the control animal−Level of uric acid of the test compound-administered animal)×100/Level of uric acid of the control animal.

[5] = biological target: T2, oxidase-type xanthine oxidoreductase (XO activity) (Rattus norvegicus, UniProt P22985); experiment: Prolonged inhibitory effect on tissue and plasma XO activity (pterin-based assay after oral dosing); type: in vivo, Sprague-Dawley male rats; conditions: about 27 hours after administration
T2 construct: frozen tissues were homogenized with potassium phosphate buffer; from tissue; host or cells: rat liver, kidney, vessel homogenate supernatants and plasma (ex vivo after oral dosing)
T2 sequence (P22985 whole entry): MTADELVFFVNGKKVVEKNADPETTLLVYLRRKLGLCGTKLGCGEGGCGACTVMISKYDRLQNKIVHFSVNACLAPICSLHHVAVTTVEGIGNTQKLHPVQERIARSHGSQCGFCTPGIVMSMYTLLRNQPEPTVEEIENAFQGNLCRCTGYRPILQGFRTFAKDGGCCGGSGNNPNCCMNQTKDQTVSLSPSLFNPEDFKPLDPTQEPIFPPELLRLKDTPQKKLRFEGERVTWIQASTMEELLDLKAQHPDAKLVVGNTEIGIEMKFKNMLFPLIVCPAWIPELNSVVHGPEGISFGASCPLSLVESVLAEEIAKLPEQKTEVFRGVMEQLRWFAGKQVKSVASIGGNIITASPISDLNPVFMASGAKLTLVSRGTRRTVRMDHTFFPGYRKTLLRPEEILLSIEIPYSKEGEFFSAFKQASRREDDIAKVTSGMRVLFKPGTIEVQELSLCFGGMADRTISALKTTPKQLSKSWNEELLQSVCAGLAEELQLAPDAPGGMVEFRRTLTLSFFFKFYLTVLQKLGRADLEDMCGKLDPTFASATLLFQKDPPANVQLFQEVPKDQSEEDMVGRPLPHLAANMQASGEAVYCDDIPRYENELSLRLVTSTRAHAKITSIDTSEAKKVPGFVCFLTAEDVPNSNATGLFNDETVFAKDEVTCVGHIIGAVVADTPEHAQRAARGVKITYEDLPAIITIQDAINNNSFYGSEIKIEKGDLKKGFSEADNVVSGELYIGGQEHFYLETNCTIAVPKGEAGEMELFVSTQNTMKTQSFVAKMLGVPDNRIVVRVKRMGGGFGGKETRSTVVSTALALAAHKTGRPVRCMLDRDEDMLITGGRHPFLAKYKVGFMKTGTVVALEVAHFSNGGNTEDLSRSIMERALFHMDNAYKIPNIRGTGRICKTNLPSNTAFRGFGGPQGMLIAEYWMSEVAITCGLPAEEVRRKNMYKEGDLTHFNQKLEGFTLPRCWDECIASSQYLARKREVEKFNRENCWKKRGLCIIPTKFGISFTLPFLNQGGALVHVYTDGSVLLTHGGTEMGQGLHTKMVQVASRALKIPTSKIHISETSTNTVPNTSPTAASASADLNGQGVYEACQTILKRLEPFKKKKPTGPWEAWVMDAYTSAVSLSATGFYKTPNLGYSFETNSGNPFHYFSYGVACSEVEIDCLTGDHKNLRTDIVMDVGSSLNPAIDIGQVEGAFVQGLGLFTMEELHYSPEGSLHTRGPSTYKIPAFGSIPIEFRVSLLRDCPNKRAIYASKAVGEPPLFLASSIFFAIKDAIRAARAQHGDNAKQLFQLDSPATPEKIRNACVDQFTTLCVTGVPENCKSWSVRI
Excerpt: (§1) For “xanthine oxidase” in the present invention, as far as this example, oxidative reaction catalyzing activities which are brought by oxidase-type xanthine oxidoreductase solely and by both oxidase-type and dehydrogenase-type xanthine oxidoreductase are distinguished. The former is “XO activity” and the latter is “XOR activity”. In “tissue XO activity”, “plasma XO activity”, “tissue XOR activity inhibition”, “tissue XOR activity inhibition” and the like, “XO activity” and “XOR activity” have the same meanings as defined above. The tissue includes liver, kidney and vessel. In addition, percentage of XO activity inhibition and that of […] in same sample are thought to be similar, according to the results below.
(§2) The inhibitory effect of tissue XO activity, tissue XOR activity and plasma XO activity was confirmed for 2-[4-(2,2-dimethylpropoxy)-3-(1H-1,2,3,4-tetrazol-1-yl)phenyl]-4-methyl-1,3-thiazole-5-carboxylic acid. A test compound suspended in a 0.5% methylcellulose solution was forcedly administered to 7 to 9 week-old Sprague-Dawley male rats (Japan Charles River Co.) by oral gavage administration using a feeding needle. The blood was collected from the abdominal vein and tissue was collected at 24 or 27 hours after administration. Plasma sample was prepared by centrifugation.
(§3) The tissue XO activity, the tissue XOR activity and the plasma XO activity were measured by the pterin-based assay which utilizes the reaction that pterin is oxidized by each type of xanthine oxidoreductase to produce fluorescent isoxanthopterin. In brief, frozen tissues were homogenized with potassium phosphate buffer, pH 7.4, containing 1 mM ethylenediaminetetraacetic acid (EDTA) and protease inhibitors to prepare tissue concentration as follow (liver: 25 mg/mL, kidney: 25 mg/mL, vessel: 30 mg/mL). Then the homogenates were centrifuged 12,000 rpm for 15 min at 4° C. When measured XO activity, the supernatant of tissue and plasma were respectively co-incubated with 50 μM pterin solution at 37° C. When measured XOR activity, the supernatant of tissue homogenate was co-incubated with 50 μM pterin and 50 μM methylene blue solution at 37° C. As a control, oxidase-type xanthine oxidoreductase (from buttermilk, manufactured by Calbiochem Novabiochem Corp.) was also incubated with pterin solution in the same manner. XO activity and XOR activity of the samples were determined from fluorescence intensity which normalized by the intensity value of control and protein concentration.
(§4) The percentage of XO activity inhibition and XOR activity inhibition were determined by the following expression: Percentage of XO or XOR activity inhibition (%)=(XO or XOR activity of the control animal−XO or XOR activity of the test compound-administered animal)×100/XO or XOR activity of the control animal.

[6] = biological target: T3, oxidase-type and dehydrogenase-type xanthine oxidoreductase (XOR activity) (Rattus norvegicus, UniProt P22985); experiment: Prolonged inhibitory effect on tissue XOR activity (pterin-based assay with methylene blue after oral dosing); type: in vivo, Sprague-Dawley male rats; conditions: for XOR activity inhibition compared to the control animal: 27 hours after drug administration; for XOR inhibitory activity, % of inhibition (vs. vehicle): 24 hours after administration
T3 construct: frozen tissues were homogenized with potassium phosphate buffer; from tissue; host or cells: rat liver, kidney, vessel homogenate supernatants and plasma (ex vivo after oral dosing)
T3 sequence (P22985 whole entry): as above
Excerpt: as §1, §2, §3, §4

T1 sequence (P80457 whole entry): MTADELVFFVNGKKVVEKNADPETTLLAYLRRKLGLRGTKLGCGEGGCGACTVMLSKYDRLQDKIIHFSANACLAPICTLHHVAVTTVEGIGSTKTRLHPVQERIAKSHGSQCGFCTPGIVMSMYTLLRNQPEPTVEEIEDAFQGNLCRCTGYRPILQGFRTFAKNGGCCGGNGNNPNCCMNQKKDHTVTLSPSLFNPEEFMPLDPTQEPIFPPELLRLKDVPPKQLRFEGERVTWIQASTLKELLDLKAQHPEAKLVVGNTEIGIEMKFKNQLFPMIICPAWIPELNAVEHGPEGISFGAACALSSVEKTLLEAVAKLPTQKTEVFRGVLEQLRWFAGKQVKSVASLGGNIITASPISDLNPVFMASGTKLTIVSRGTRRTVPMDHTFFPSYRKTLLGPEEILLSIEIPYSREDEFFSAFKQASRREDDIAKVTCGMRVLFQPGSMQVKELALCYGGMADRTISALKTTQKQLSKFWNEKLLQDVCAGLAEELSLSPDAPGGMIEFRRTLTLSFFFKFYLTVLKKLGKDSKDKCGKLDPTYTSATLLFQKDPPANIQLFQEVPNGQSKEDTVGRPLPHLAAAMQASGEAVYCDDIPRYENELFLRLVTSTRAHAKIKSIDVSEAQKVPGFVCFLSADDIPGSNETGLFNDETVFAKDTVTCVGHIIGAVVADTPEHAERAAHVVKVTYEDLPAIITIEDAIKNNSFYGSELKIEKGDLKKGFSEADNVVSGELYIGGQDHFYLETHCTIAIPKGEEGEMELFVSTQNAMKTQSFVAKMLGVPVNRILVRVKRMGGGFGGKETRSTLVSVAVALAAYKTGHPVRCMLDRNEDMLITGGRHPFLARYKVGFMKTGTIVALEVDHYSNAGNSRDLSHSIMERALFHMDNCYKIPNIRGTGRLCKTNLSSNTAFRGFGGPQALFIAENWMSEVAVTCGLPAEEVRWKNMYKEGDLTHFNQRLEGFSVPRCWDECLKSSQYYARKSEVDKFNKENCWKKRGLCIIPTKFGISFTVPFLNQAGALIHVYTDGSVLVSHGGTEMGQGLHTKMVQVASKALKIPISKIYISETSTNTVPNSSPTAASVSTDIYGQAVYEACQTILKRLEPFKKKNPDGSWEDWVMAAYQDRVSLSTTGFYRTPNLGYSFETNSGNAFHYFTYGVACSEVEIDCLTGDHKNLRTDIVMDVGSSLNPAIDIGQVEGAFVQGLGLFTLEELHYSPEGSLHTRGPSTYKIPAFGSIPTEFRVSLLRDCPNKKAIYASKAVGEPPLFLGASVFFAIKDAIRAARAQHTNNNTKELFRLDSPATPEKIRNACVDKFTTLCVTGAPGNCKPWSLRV

IC50 [1]: 1 to 5 nM
XO inhibitory activity, % of inhibition (vs. vehicle) ([5]; rat kidney, 1 mg/kg oral): ≧60%
XO inhibitory activity, % of inhibition (vs. vehicle) ([5]; rat kidney, 10 mg/kg oral, 10 mg/kg): ≧70%
XO inhibitory activity, % of inhibition (vs. vehicle) ([5]; rat kidney, 10 mg/kg oral, listed as present compound, 10 mg/kg): ≥ 70%
XO inhibitory activity, % of inhibition (vs. vehicle) ([5]; rat liver, 1 mg/kg oral): ≧80%
XO inhibitory activity, % of inhibition (vs. vehicle) ([5]; rat plasma, 1 mg/kg oral, 1 mg/kg): ≧25%
XO inhibitory activity, % of inhibition (vs. vehicle) ([5]; rat plasma, 1 mg/kg oral, listed as present compound, 1 mg/kg): ≥ 25%
XO inhibitory activity, % of inhibition (vs. vehicle) ([5]; rat plasma, 10 mg/kg oral, 10 mg/kg): ≧40%
XO inhibitory activity, % of inhibition (vs. vehicle) ([5]; rat plasma, 10 mg/kg oral, listed as present compound, 10 mg/kg): ≥ 40%
XOR activity inhibition compared to the control animal ([6]; rat kidney, 1 mg/kg oral): ≥ 60%
XOR inhibitory activity, % of inhibition (vs. vehicle) ([6]; rat liver, 1 mg/kg oral, 1 mg/kg): ≧80%
XOR inhibitory activity, % of inhibition (vs. vehicle) ([6]; rat liver, 1 mg/kg oral, listed as present compound, 1 mg/kg): ≥ 80%
XOR activity inhibition compared to the control animal ([6]; rat liver, 1 mg/kg oral): ≥ 80%
XOR inhibitory activity, % of inhibition (vs. vehicle) ([6]; rat vessel, 1 mg/kg oral, 1 mg/kg): ≧30%
XOR inhibitory activity, % of inhibition (vs. vehicle) ([6]; rat vessel, 1 mg/kg oral, listed as present compound, 1 mg/kg): ≥ 30%
XOR inhibitory activity, % of inhibition (vs. vehicle) ([6]; rat vessel, 10 mg/kg oral, 10 mg/kg): ≧50%
XOR inhibitory activity, % of inhibition (vs. vehicle) ([6]; rat vessel, 10 mg/kg oral, listed as present compound, 10 mg/kg): ≥ 50%
SMILES: Cc1nc(-c2ccc(OCC(C)(C)C)c(-n3cnnn3)c2)sc1C(=O)O [2-[4-(2,2-dimethylpropoxy)-3-(1H-1,2,3,4-tetrazol-1-yl)phenyl]-4-methyl-1,3-thiazole-5-carboxylic acid]
Percentage of hypouricemic effect ([2]; 1 mg/kg): ≥ 50%
Percentage of hypouricemic effect ([2]; 10 mg/kg): ≥ 50%
Percentage of hypouricemic effect ([3]; 3 mg/kg): ≥ 40%
Percentage of hypouricemic effect ([3]; 10 mg/kg): ≥ 50%
Percentage of hypouricemic effect [4]: ≥ 80%
